Results from patent publication US7181271B2, “Synergism of photodynamic and electropermeation effect on cell vitality as a novel cytotoxic agent” (Genetronics, Inc., priority 2003, dated 2007).

How the values were obtained:
U937 cells = experiment: Cell viability by trypan blue exclusion after electroporation (250 V, 400 F) and 14 min irradiation; assay type: cell-based; conditions: for Total dead cells for exp. / Dead cells by pulse / Dead cells by light for control: 1 × 10^−5 M agent, 18–22 C; for Total dead cells for exp. / Dead cells by pulse / Dead cells by light for control / Final dead cells: exp/control: U937 cells; for Total dead cells for exp.: pulse 250 V plus 14 min irradiation; for Dead cells by pulse: single pulse 250 V (1.2 kV/cm), 400 F, 11–12 ms, 14 min irradiation; for Dead cells by light for control: unpulsed control, irradiated 14 min; for Final dead cells: exp/control: ratio of total dead cells (pulse + light) to dead cells by light only, 1 × 10^−5 M
[1] = type 1 photoreaction; cited from earlier work

| Structure (SMILES) | Total dead cells for exp. (U937 cells) [%] | Dead cells by pulse (U937 cells) [%] | Dead cells by light for control (U937 cells) [%] | Final dead cells: exp/control (U937 cells) | penetration and dark effect (without irradiation) (U937 cells; unpulsed U937 cells, without irradiation) | rate constant of oxidizing guanosine [1] [M⁻¹ s⁻¹] |
| --- | --- | --- | --- | --- | --- | --- |
| C=CC1=C(C)c2cc3[nH]c(cc4nc(cc5[nH]c(cc1n2)c(C)c5CCC(=O)O)C(CCC(=O)O)=C4C)c(C)c3C=C [PP, protoporphyrin] | 91.6 | 65.8 | 18.8 | 4.9 | – | – |
| COc1cccc2c1C(=O)c1c(O)c3c(c(O)c1C2=O)C[C@@](O)(C(C)=O)C[C@@H]3O[C@H]1C[C@H](N)[C@H](O)[C@H](C)O1 [DAM, daunomycin] | 87.5 | 63.4 | 17.6 | 4.9 | increases with time | – |
| CN(C)c1ccc2cc3ccc(=[N+](C)C)cc-3sc2c1.[Cl-] [TP, thiopyronin] | 98.6 | 80.3 | 20.1 | 4.9 | – | 3.8e+06 |
